Data as given in patent US11448563B2, “Force measurement method, force measurement device, force measurement system, force measurement program, and recording medium” (Tohoku University, priority 2017, dated 2022).

Test system: motor proteins
Assay: Frequency distribution of the fluctuation value χ of cargo transport, measured with the force measurement device after adding Ciliobrevin to cells
Format: cell-based
Conditions: melanocytes; for number of clusters into which the frequency distribution of the fluctuation value χ is classified: four clusters without Ciliobrevin
Method: The dish after stain was placed on a heating plate (CU-201, Live Cell Instrument), and the stained melanin vesicles in melanocytes were observed under a dark-field microscope (IX71, Olympus) while the temperature was maintained at 37° C. A video was captured using an EMCCD camera (LucaS (Andor)) with a 100× objective lens (UPlanFL 100x/1.3, Plympus) at 98 frames per second. Time course data of the position of the center of gravity of melanin vesicles was calculated from the video using ImageJ (Rasband, 1997).
FIG. 15A, FIG. 15B and FIG. 15C are diagrams showing specific results showing that the fact that the frequency distribution of the fluctuation value χ changes according to addition of Ciliobrevin which is a reagent that inhibits a function of motor proteins into melanocytes is clear from measurement of χ using the force measurement device 1 of the embodiment.

In the case of Ciliobrevin, the “change in the number of clusters of the fluctuation value χ with the amount of Ciliobrevin added” value (comparison of 0, 20 and 40 μM (FIG. 15A-15C)) is reported as “number of clusters decreases as the amount of Ciliobrevin added increases”, the “number of clusters into which the frequency distribution of the fluctuation value χ is classified” value (concentration of Ciliobrevin in the cell culture medium 20 μM (FIG. 15B)) is reported as “two clusters” and the “number of clusters into which the frequency distribution of the fluctuation value χ is classified” value (concentration of Ciliobrevin in the cell culture medium 40 μM (FIG. 15C)) is reported as “one cluster”.
